Assay [1] has as its target T1, recombinant mGlu2 receptors (Homo sapiens, UniProt Q14416).
T1 construct: expressed in transfected cells
Kind of assay: forskolin-stimulated cAMP accumulation in cells expressing mGlu2. Conditions: for IC50: antagonist: blocks agonist induced decrease in forskolin-stimulated cAMP, read-out: IC50 (nM) ± SEM mGlu2, forskolin-stimulated cAMP accumulation; for EC50: agonist: reduces cAMP accumulation to 50% of the controls, read-out: EC50 (nM) ± SEM mGlu2, forskolin-stimulated cAMP accumulation. The class given is cell-based. On the procedure: (§1) To study the functional effect of compounds of the present invention in comparison to compounds of U.S. Pat. No. 5,958,960, forskolin stimulated c-AMP production in cells expressing recombinant mGlu2 and mGlu3 receptors was determined. As mGlu2 and mGlu3 receptors are negatively coupled to adenyl cyclase, activity of an agonist decreases forskolin-stimulated accumulation of cyclic adenosine monophosphate (cAMP) and is reported as the concentration necessary to reduce C-AMP accumulation to 50% of the controls (EC50, nM). The activity of an anatgonist blocks the agonist induced decrease in forskolin-stimulated accumulation of cyclic adenosine monophosphate (cAMP) and is reported as the concentration necessary to inhibit the reduction of C-AMP accumulation to 50% of the controls (IC50, nM).
(In general: Cyclic AMP is a second messenger, typically raised through Gs and lowered through Gi signalling.)

Assay [2] deals with T2, recombinant human mGluR2 (Homo sapiens, UniProt Q14416).
T2 construct: expressed in transfected cells; host or cells: RGT cells
Nature of the assay: [3H]LY341495 displacement binding, mGlu2. The conditions noted are these: displacement of [3H]LY341495; receptors expressed in RGT cells; read-out: Ki (nM) ± SEM mGlu2, effects on [3H]LY341495 binding. As to the method: (§2) To study the ability to affect receptor binding of compounds of the present invention in comparison to compounds of U.S. Pat. No. 5,958,960, displacement of a high affinity mGluR2 antagonist radioligand [^3H]LY341495 from recombinant human mGluR2 and human mGluR3 receptors expressed in RGT cells was determined.
In general terms: In a radioligand displacement assay an active substance lowers the binding of a labelled ligand.

Assay [3] deals with T3, recombinant mGlu3 receptors (Homo sapiens, UniProt Q14832).
T3 construct: expressed in transfected cells
Kind of assay: forskolin-stimulated cAMP accumulation in cells expressing mGlu3. The conditions noted are these: for IC50: antagonist: blocks agonist induced decrease in forskolin-stimulated cAMP, read-out: IC50 (nM) ± SEM mGlu3, forskolin-stimulated cAMP accumulation; for EC50: agonist: reduces cAMP accumulation to 50% of the controls, read-out: EC50 (nM) ± SEM mGlu3, forskolin-stimulated cAMP accumulation. The class given is cell-based. As to the method: as §1

The target in assay [4] is T4, human mGluR3 (Homo sapiens, UniProt Q14832).
T4 construct: expressed in transfected cells; host or cells: RGT cells
Nature of the assay: [3H]LY341495 displacement binding, mGlu3. The conditions noted are these: displacement of [3H]LY341495; receptors expressed in RGT cells; read-out: Ki (nM) ± SEM mGlu3, effects on [3H]LY341495 binding. As to the method:
as §2

For six molecules, IC50, Ki and EC50 results are on record in patent US20040116489A1, “Synthetic excitatory amino acids” (priority 2003, published 2004).

T4 sequence (Q14832 23-879): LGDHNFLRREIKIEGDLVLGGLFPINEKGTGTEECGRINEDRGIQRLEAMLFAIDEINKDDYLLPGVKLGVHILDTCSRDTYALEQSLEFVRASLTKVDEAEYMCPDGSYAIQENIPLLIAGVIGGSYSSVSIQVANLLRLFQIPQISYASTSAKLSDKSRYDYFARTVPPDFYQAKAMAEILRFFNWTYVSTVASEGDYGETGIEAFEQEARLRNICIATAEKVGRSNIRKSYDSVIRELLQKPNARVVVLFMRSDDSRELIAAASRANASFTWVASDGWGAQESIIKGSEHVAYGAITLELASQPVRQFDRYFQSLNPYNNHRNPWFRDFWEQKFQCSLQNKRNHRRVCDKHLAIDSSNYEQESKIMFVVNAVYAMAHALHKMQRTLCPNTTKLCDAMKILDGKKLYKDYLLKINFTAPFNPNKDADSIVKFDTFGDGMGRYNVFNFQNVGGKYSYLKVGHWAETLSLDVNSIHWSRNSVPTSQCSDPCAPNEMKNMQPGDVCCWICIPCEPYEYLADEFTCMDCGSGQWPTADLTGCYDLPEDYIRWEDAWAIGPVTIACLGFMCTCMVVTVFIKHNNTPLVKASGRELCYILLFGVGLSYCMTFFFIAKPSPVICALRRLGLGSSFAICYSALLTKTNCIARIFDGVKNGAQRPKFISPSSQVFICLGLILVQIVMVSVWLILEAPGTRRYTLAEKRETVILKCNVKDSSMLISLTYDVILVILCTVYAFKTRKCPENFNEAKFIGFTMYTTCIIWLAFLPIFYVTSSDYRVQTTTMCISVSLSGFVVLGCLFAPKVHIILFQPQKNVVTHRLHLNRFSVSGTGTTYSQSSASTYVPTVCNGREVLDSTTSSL
T3 sequence (Q14832 23-879): as above
T1 sequence (Q14416 19-872): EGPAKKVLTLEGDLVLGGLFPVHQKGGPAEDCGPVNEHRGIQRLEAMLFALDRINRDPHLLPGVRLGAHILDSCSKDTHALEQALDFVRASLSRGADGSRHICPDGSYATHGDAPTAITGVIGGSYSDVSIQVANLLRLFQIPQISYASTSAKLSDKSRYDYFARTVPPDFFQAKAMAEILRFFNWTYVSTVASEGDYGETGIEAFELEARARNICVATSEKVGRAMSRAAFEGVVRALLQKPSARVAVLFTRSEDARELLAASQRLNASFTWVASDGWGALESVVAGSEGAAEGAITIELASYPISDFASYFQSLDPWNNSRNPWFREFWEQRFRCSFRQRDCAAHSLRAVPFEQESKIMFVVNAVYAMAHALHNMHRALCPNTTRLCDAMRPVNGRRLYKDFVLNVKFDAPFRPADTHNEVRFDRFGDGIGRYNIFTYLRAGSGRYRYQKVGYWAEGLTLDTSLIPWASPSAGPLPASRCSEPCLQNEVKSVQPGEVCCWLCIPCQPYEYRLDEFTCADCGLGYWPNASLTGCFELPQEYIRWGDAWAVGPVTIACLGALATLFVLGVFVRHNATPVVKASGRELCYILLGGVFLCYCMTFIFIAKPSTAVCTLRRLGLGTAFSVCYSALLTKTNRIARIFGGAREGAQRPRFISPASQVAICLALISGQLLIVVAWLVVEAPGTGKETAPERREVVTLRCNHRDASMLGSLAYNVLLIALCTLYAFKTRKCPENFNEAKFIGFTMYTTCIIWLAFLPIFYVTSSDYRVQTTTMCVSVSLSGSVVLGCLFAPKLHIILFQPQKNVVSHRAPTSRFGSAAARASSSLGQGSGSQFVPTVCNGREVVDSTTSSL
T2 sequence (Q14416 19-872): as above

For `CNC(=O)N[C@@H]1C[C@@](N)(C(=O)O)[C@@H]2[C@@H](C(=O)O)[C@@H]21` (relative stereo) [(1S*, 2S*, 4R*, 5R*, 6S*) 2-Amino-4-(3-methylureido)bicyclo[3.1.0]hexane-2,6-dicarboxylic acid], the IC50 is 3220 nM in assay [1] and 6270 nM in assay [3]. Further, the Ki was 468 ± 29 nM in assay [2] and 408 ± 25.4 nM in assay [4].

Consider `N[C@@]1(C(=O)O)C[C@@H](NC(=O)c2ccccc2)[C@H]2[C@H](C(=O)O)[C@H]21` (relative stereo) [1S*, 2S*, 4R*, 5R*, 6S*) 2-Amino-4-benzoylaminobicyclo[3.1.0]hexane-2,6-dicarboxylic acid], for which the IC50 in assay [1] is 4060 nM; in assay [3], 9520 nM. Further, the results for the Ki in assay [2] and in assay [4] were 607 ± 10.2 nM and 393 ± 17.8 nM, respectively.

With `CC(=O)N[C@@H]1C[C@@](N)(C(=O)O)[C@@H]2[C@@H](C(=O)O)[C@@H]21` (relative stereo) [(1S*, 2S*, 4R*, 5R*, 6S*) 4-Acetylamino-2-aminobicyclo[3.1.0]hexane-2,6-dicarboxylic acid], the IC50 in assay [1] worked out at 4300 nM; in assay [3], 11100 nM. The Ki in assay [2] amounted to 638 ± 59.6 nM; in assay [4], 399 ± 67.8 nM.

As to `CNC(=O)N[C@H]1C[C@@](N)(C(=O)O)[C@@H]2[C@@H](C(=O)O)[C@@H]21` (relative stereo) [Example 20, (1S*, 2S*, 4S*, 5R*, 6S*) 2-Amino-4-(3-methyl-ureido)-bicyclo[3.1.0]hexane-2,6-dicarboxylic acid], the EC50 amounted to 426 ± 41.8 nM in assay [1] and 41.1 ± 11.1 nM in assay [3]. For the same molecule, the Ki in assay [2] amounted to 254 ± 10.7 nM; in assay [4], 23 ± 2.6 nM.

Regarding `N[C@@]1(C(=O)O)C[C@H](NC(=O)c2ccccc2)[C@H]2[C@H](C(=O)O)[C@H]21` (relative stereo) [Example 24, (1S*, 2S*, 4S*, 5R*, 6S*) 2-Amino-4-benzoylamino-bicyclo[3.1.0]hexane-2,6-dicarboxylic acid], the EC50 in assay [1] amounted to 60.7 ± 1.03 nM; in assay [3] it was 18.1 ± 2.87 nM. Besides, the results for the Ki in assay [2] and in assay [4] were 511 ± 89 nM and 9.54 ± 0.73 nM, respectively.

As for `CC(=O)N[C@H]1C[C@@](N)(C(=O)O)[C@@H]2[C@@H](C(=O)O)[C@@H]21` (relative stereo) [Example 23, (1S*, 2S*, 4S*, 5R*, 6S*) 4-Acetylamino-2-amino-bicyclo[3.1.0]hexane-2,6-dicarboxylic acid], the EC50 in assay [1] stood at 1350 nM; in assay [3] it was 1730 nM. For the same molecule, the results for the Ki in assay [2] and in assay [4] were 772 ± 38.8 nM and 214 ± 14.6 nM, respectively.

One may read the IC50 as the point on the concentration scale where inhibition reaches its midpoint. In general, Ki refers to the dissociation constant of the complex between target and ligand, obtained from inhibition or displacement. One may read the EC50 as the concentration that produces a half-maximal response.
